Here are results for one compound from US11827663B2, “Use of UAP inhibitors to inhibit flux through the hexosamine biosynthetic pathway” (The Johns Hopkins University, priority 2014, dated 2023).

Entries after “also recorded” stand apart in the source; their conditions may differ.

What all share (assay type): cell-based
One test has as its system microRNA. Nature of the test: qRT-PCR analysis of microRNA expression. Conditions: SW1990 and 612 cells, 48 h. The procedure:
FIGS. 20A-20C show qRT-PCR analysis of microRNA expression following treatment with different concentrations of Ac4Glc2Bz, for SW1990 cells of […] (FIG. 20A); for 612 cells of 191b-5p (FIG. 20B); and for SW1990 cells of 181p-5p (FIG. 20C).
The microRNAs analyzed were chosen because they regulated different aspects of cancer cell glycosylation. 3×10^5 cells per well in a 6-well plate were seeded along with the concentrations of Ac4Glc2Bz indicated. Glioblastoma cells were placed on 6-well plates precoated with laminin (1 ug/cm^2). After 48 h, miRNA was extracted using a miRNeasy kit (Qiagen), followed by cDNA synthesis and qrt-PCR using miRCURY LNA™ Universal RT microRNA PCR Starter Kit (Exiqon).
(Quantitative PCR measures a nucleic acid by following its amplification.)

Test [1] relates to primary glioblastoma line GS1049. Put plainly: Cell count of primary glioblastoma line GS1049. Conditions: 48 h incubation, cell counting normalized to untreated controls; read-out: Estimated IC50 values, GS 1049. The protocol: FIG. 7A depicts the results of primary glioblastoma lines 612 and GS1049 after incubation for 48 h with Ac4Glc2Bz followed by cell counting and normalization to untreated controls. The data is log transformed to easily determine IC50 values. FIG. 7B and FIG. 7C depict the measurement of proliferation of the primary glioblastoma lines after 48 h incubation with Ac4Glc2Bz using a MTT assay.
Cells were incubated at a range of concentrations of the UAP inhibitors (typically at 0, 10, 25, 50, 100, and 150 μM) and the number of cells were quantified, typically by automated counting (e.g., with a Coulter Counter Z2 instrument) after 1, 2, 3, or 5 days of exposure.

A further test deals with c-MYC. Nature of the test: Western blot of c-MYC. Conditions: SW1990, PANC-1, 612 and GS1049 cells, 125 μM or 250 μM. The protocol: Proteins from treated cells were obtained by lysing cells in RIPA buffer (SIGMA) supplemented with Protease Inhibitor Cocktail (1:100), Phosphatase Inhibitor Cocktail 2 (SIGMA) (1:100), and Phosphatase Inhibitor Cocktail 3 (SIGMA)(1:100). SDS-PAGE was performed followed by western blotting for c-MYC (Cell Signaling) and β-actin (SIGMA).

The term IC50 denotes the concentration at which inhibition is half-maximal.

In the case of `CC(=O)OCC1OC(OC(C)=O)[C@@H](NC(=O)c2ccccc2)[C@@H](OC(C)=O)[C@@H]1OC(C)=O` (stereo partly drawn) [Ac4Glc2Bz], the microRNA expression entry with microRNA is recorded as “could be modulated”. Besides, the IC50 in test [1] is 88.8 ± 1.8 µM. The c-MYC expression result in the test on c-MYC was “reduce c-MYC expression in a dose-dependent manner; also recorded: altered”.
